# Laboratory results from US3984411A, “Pyrimidines” (Societe Generale de Recherches et d'Applications …, priority 1975, dated 1976).
# Structures can show the parent of a compound that is named as a salt. Where two headings read alike, the source gives them in different places.
# Key:
# [1] = Toxicity (LD 50) in mice by intravenous and oral application; type: in vivo; conditions: mouse, in vivo, cumulative quantal method
# Description: (§1) The toxicities of the compounds according to the invention have been determined on mice CD 1 (Charles RIVER) by intravenous and oral applications. The LD 50, calculated by the cumulative quantal method of J. J. Reed and H. Muench, Am.
# cholesterolemia = assay: Hypocholesterolemiant effect in the rat, oral, 4 days treatment; type: in vivo, rat CD (Charles RIVER); conditions: for hypocholesterolemiant activities (in words): oral, 4 days
# Description: The hypocholesterolemiant effects of the products according to the invention have been studied on the rat CD (Charles RIVER) by oral application. The animals, divided into groups of 10, are treated daily by gastric probe for 4 consecutive days. Four hours after the last administration, the rats are killed and their blood is collected in order to proceed to the determination of the amount of cholesterol according to the method of J. Levine and B. Zak, Clin. Acta, 10, 381 (1964).
# The activity of the substances is evaluated by calculating the percentage variation of the average amount of cholesterol of the animals treated with respect to that of the control animals. Then the statistical significance of the differences observed is determined by application of the STUDENT test.
# glycemia = assay: Hypoglycemiant effect in the rat, oral, 4 days treatment; type: in vivo, male rat CD (Charles RIVER); conditions: for hypoglycemiant effects (in words): oral, 4 days
# Description: The hypoglycemiant properties have been studied on the male rat CD (Charles RIVER) of 200-250 g, of which the glycemia is controlled after 4 days of daily treatment by oral application. The serum glucose is determined by the method of W. S. Hoffman, J. Biol. Chem., 120, 51 (1937). Groups of 10 rats are used and the hypoglycemiant activity is expressed by the percentage variation of the average glycemia of the treated animals compared with that of the controls. The statistical significance of the differences observed is determined by application of the STUDENT test.
# [2] = test system: mice CD 1 (Charles RIVER); assay: Toxicity (LD 50) in mice by intravenous and oral application; type: in vivo; conditions: mice CD 1, oral; cumulative quantal method
# Description: as §1
# [3] = mice CD 1, intravenous, read-out: Intense toxicities to mice (LD 50), intravenous
# [4] = mice CD 1, oral, read-out: Intense toxicities to mice (LD 50), oral
# [5] = 100 mg/kg taken orally, significant at p = 0.001, except Example 18 at p = 0.05
# [6] = 100 mg/kg taken orally, significant at p = 0.001
# [7] = 300 mg/kg taken orally, significant at p = 0.001
# [8] = 50 mg/kg taken orally, all values significant at p = 0.001
SMILES,"LD50 [1, 3]","LD50 [1, 4]",Variation of the cholesterolemia in % with respect to the controls after 4 days treatment (cholesterolemia; [5]),hypoglycemiant effects (in words) (glycemia),Percentage variation of the glycemia compared with the controls after 4 days treament (glycemia; [7]),"Intense toxicities to mice (LD 50), oral [2]",hypocholesterolemiant activities (in words) (cholesterolemia),also measured
"CN1CCC(Oc2nc(N3CCOCC3)nc(OC3CCN(C)CC3)c2Cc2ccccc2)CC1 [Example 21, 2-morpholino-4,6-di[(N-methyl-4'-piperidyl)oxy]-5-benzyl-pyrimidine]",40 mg/kg,~800 mg/kg,-39%,especially large hypoglycemiant effects,,,,Percentage variation of the glycemia compared with the controls after 4 days treament (glycemia; [6]): -27%
"CCOc1c(OC2CCN(C)CC2)nc(N2CCOCC2)nc1OC1CCN(C)CC1 [Example 19, 2-morpholino-4,6-di[(N-methyl-4'-piperidyl)oxy]-5-ethoxy-pyrimidine dihydrochloride]",70 mg/kg,~600 mg/kg,,especially large hypoglycemiant effects,-43%,,,
"CN1CCC(Oc2nc(N3CCOCC3)nc(OC3CCN(C)CC3)c2-c2ccc(Cl)cc2)CC1 [Example 18, 2-morpholino-4,6-di[(N-methyl-4'-piperidyl)oxy]-5-p-chlorophenyl-pyrimidine]",20 mg/kg,~600 mg/kg,-14%,especially large hypoglycemiant effects,-35%,,,Variation of the cholesterolemia in % with respect to the controls after 4 days treatment (cholesterolemia; [7]): -44%; Percentage variation of the glycemia compared with the controls after 4 days treament (glycemia; [6]): -29%
"CCCCc1c(OC2CCN(C)CC2)nc(N2CCOCC2)nc1OC1CCN(C)CC1 [Example 17, 2-morpholino-4,6-di[(N-methyl-4'-piperidyl)oxy]-5-n-butyl-pyrimidine dihydrochloride]",,~225 mg/kg,-36%,,,,,
"CN1CCC(Oc2nc(N3CCOCC3)nc(OC3CCN(C)CC3)c2Cl)CC1 [Example 22, 2-morpholino-4,6-di[(N-methyl-4'-piperidyl)oxy]-5-chloro-pyrimidine]",,,-45%,,,atoxic at 900,remarkable hypocholesterolemiant activities,Variation of the cholesterolemia in % with respect to the controls after 4 days treatment (cholesterolemia; [8]): -19%
"CCc1c(OC2CCN(C)CC2)nc(N2CCOCC2)nc1OC1CCN(C)CC1 [Example 16, 2-morpholino-4,6-di[(N-methyl-4'-piperidyl)oxy]-5-ethyl-pyrimidine dihydrobromide]",54 mg/kg,~525 mg/kg,-60%,,,,remarkable hypocholesterolemiant activities,
"COc1c(OC2CCN(C)CC2)nc(N2CCOCC2)nc1OC1CCN(C)CC1 [Example 14, 2-morpholino-4,6-di[(N-methyl-4'-piperidyl)oxy]-5-methoxy-pyrimidine]",67 mg/kg,,,,,atoxic at 900,,"Percentage variation of the glycemia compared with the controls after 4 days treament (glycemia; 200 mg/kg taken orally, significant at p = 0.001): -24%"
"Cc1c(OC2CCN(C)CC2)nc(N2CCOCC2)nc1OC1CCN(C)CC1 [Example 15, 2-moropholino-4,6-di[(N-methyl-4'-piperidyl)oxy]-5-methyl-pyrimidine]",81 mg/kg,,,,,atoxic at 900,remarkable hypocholesterolemiant activities,"Variation of the cholesterolemia in % with respect to the controls after 4 days treatment (cholesterolemia; [8]): -31%; Percentage variation of the glycemia compared with the controls after 4 days treament (glycemia; 50 mg/kg taken orally, significant at p = 0.05): -12%"
"CN1CCC(Oc2nc(N3CCOCC3)nc(OC3CCN(C)CC3)c2Oc2ccc(Cl)cc2)CC1 [Example 20, 2-morpholino-4,6-di[(N-methyl-4'-piperidyl)oxy]-5-p-chlorophenoxy-pyrimidine]",,> 900 mg/kg,-47%,especially large hypoglycemiant effects,-27%,,remarkable hypocholesterolemiant activities,
"CN1CCC(Oc2cc(OC3CCN(C)CC3)nc(N3CCOCC3)n2)CC1 [Example 23, 2-morpholino-4,6-di[(N-methyl-4'-piperidyl)oxy]-pyrimidine]",,,,,,atoxic at 900,,"Percentage variation of the glycemia compared with the controls after 4 days treament (glycemia; 400 mg/kg taken orally, significant at p = 0.001): -20%"
